Measured values taken from patent US9801381B2, “Form of rimsulfuron, a process for its preparation and use of the same” (ROTAM AGROCHEM INTERNATIONAL COMPANY LIMITED, priority 2015, dated 2017).
Where two headings read alike, the source gives them in different places.

Key:
[1] = Cleanout test (rimsulfuron residue in polyethylene bottles after rinsing, extracted with acetonitrile); type: physicochemical; conditions: for Cleanout rating, % (concentration of rimsulfuron herbicide in the acetonitrile solution): dispersed in tap water, stood overnight, lower rating = more effective cleanout
Description: The cleanout test was conducted by dispersing in water a sample to produce a concentration that is normally used when applying the herbicide: 25% rimsulfuron. The sample was added to tap water (300 mL) in a 400 mL beaker and magnetically stirred for 2 minutes. The mixture was then stirred for 2 minutes, whereupon the resulting dispersion was dispensed in three 100 mL aliquots to 4-oz (118 mL) polyethylene bottles. The bottles were capped, inverted twice and allowed to stand overnight.
After standing overnight, each individual bottle was inverted twice and the liquid contents were then poured out. Tap water (10 mL) was added and the bottle was inverted until all sediment was re-suspended, whereupon the contents were poured out. Tap water (100 mL) was added and the bottle was inverted twice and then allowed to stand undisturbed for 10 minutes. The bottle was inverted twice more and the contents were poured out. Acetonitrile (10 mL) was added to the bottle to extract any remaining material. The acetonitrile solution was analyzed by reversed-phase liquid chromatography with UV detection. The cleanout rating (the concentration of rimsulfuron herbicide in the acetonitrile solution) is reported in % in Table 6 below.

[2] = type: physicochemical; conditions: pH 7 buffer, test temperature e.g. 20° C.
[3] = type: physicochemical
Description: A stock pH 7 buffer solution was prepared by adding aqueous sodium hydroxide solution (0.1 M, 145 mL) to aqueous potassium dihydrogen phosphate solution (0.1 M, 250 mL), and then adding sufficient distilled water to adjust the final volume to 500 mL. At least 1 time and up to about 5 times the amount of rimsulfruon needed for saturation was added to a mixing vessel containing stock buffer solution at the test temperature (e.g., 20° C.). The mixture was magnetically stirred in the dark while being maintained at the test temperature. Samples were periodically removed for analysis. The samples were centrifuged using a high speed, temperature-controlled centrifuge at the test temperature for about 20 minutes at ≧12000 G to remove suspended particles. An aliquot of each supernatant was taken for analysis. The concentration of rimsulfuron in the supernatant was determined by a high pressure liquid chromatography (HPLC) with a reversed phase chromatography column and UV detection. The method should include development of best-fit calibration curves based on at least three standards using linear regression analysis Samples were successively withdrawn from the mixing vessel and analyzed until three successive samples show little or no variation in concentration. The test is preferably replicated to ensure accuracy.

[4] = OD formulation, original concentration 40%
[5] = SG formulation, original concentration 25%
[6] = WG formulation, original concentration 25%

Row | Structure (SMILES) | Cleanout rating, % (concentration of rimsulfuron herbicide in the acetonitrile solution) ([1]; OD formulation) [%] | Cleanout rating, % (concentration of rimsulfuron herbicide in the acetonitrile solution) ([1]; SG formulation) [%] | Cleanout rating, % (concentration of rimsulfuron herbicide in the acetonitrile solution) ([1]; WG formulation) [%] | Concentration measured by HPLC after treatment, % [2, 4] [%] | Concentration measured by HPLC after treatment, % [2, 5] [%] | Concentration measured by HPLC after treatment, % [2, 6] [%] | Solubility compared with amorphous rimsulfuron (in words) [3] | Cleanout properties compared with the known amorphous rimsulfuron product (in words) ([1]; summary of Table 6)
1 | CCS(=O)(=O)c1cccnc1S(=O)(=O)NC(=O)Nc1nc(OC)cc(OC)n1 [Amorphous Rimsulfuron, prepared in Example 1] [1-(4,6-dimethoxypyrimidin-2-yl)-3-(3-ethylsulfonyl-2-pyridylsulfonyl)urea, reference compound] | 26 | 10 | 13 | 14 | 15 | 12 |  | 
2 | CCS(=O)(=O)c1cccnc1S(=O)(=O)NC(=O)Nc1nc(OC)cc(OC)n1 [Rimsulfuron, crystal form A, 98%, prepared in Example 2] [1-(4,6-dimethoxypyrimidin-2-yl)-3-(3-ethylsulfonyl-2-pyridylsulfonyl)urea] | 5 | 0.1 | 2 | 35 | 24.9 | 23 | significant increase in its solubility | markedly superior cleanout properties
